Data reported in patent US20220296526A1, “CANNABINOID COMPOSITIONS, METHODS OF MAKING SAME AND USES THEREOF” (HEXO OPERATIONS INC., priority 2019, published 2022).
“And” between values parts separate entries of the source, which are not always exact repeats. Equal entries are not always repeated.

Assay: DLS particle size tracking around spray drying (nanoemulsion, solubilized carrier, pre-spray dried mixture, re-hydrated powder)
Type: physicochemical
Conditions: solubilized carrier alone, 0.4 g/ml
Description: Particle size of all nanoemulsions was measured in water solution at 25° C. using dynamic light scattering (DLS). All samples in the present disclosure have been analyzed at a dilution of 1/20 in purified water using a LiteSizer™ (Anton Paar GmbH, Germany).
The resulting spray dried emulsion powder was analyzed by performing a rehydration and then performing a visual inspection for turbidity and DLS analysis for particle size tracking of the generated emulsion (see Table 9).

For `OC[C@@H](O)[C@@H](O)[C@H](O)[C@H](O)CO` [Pearlitol (Mannitol), Mannitol], the “Particle Size Carrier” value was 287 nm, poor signal and 225 nm, poor signal.
